Reference: publication PMC11714206, “Massively Parallel Screening of Toll/Interleukin‐1 Receptor (TIR)‐Derived Peptides Reveals Multiple Toll‐Like Receptors (TLRs)‐Targeting Immunomodulatory Peptides” (Advanced Science, 2024)

Molecular target: T1, MyD88^TIR (Homo sapiens, UniProt Q99836)
T1 construct: MyD88 (residues 148–296); 6xHis; made in house; host or cells: E. coli BL21 (DE3)
Assay: T‐Surf phage library (P8 and P3) selection against MyD88^TIR, four rounds, NGS read counts
Assay type: binding
Conditions: for P8_MyD88 Rank (after) / P8_MyD88 Rank (before): P8 library; for Population: P8_MyD88 pool: P8 T-Surf phage library, 4th round of selection against MyD88 TIR, share of NGS reads
Method in brief: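 Read counts come from NGS of phage pools after the fourth selection round, barcoded by 20-cycle PCR and filtered for quality ≥30. Each round: phage incubated 1 h at RT on immobilised TIR protein (5 µg mL^−1, BSA-blocked), washed, HCl-eluted and amplified in E. coli TG1.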

[1] = selection against MyD88, rank by count after grouping
[2] = selection against MyD88, rank by count before grouping
[3] = selection against MyD88 TIR, rank by count after grouping
[4] = selection against MyD88 TIR, rank by count before grouping
[5] = selection against MyD88, rank after grouping
[6] = selection against MyD88, rank before grouping
[7] = 4R selection against MyD88, rank after grouping
[8] = 4R selection against MyD88, rank before grouping
[9] = P8_MyD88: rank by NGS read count after grouping
[10] = P8_MyD88: rank by NGS read count before grouping
[11] = P8_MyD88: rank by count after grouping
[12] = P8_MyD88: rank by count before grouping

T1 sequence (Q99836 148-296): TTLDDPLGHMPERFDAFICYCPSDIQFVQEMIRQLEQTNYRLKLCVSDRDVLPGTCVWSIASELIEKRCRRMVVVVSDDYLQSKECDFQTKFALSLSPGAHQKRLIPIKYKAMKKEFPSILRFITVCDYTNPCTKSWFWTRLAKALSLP

WALDELLKILCANKTM was tested, and the “P8_MyD88 Rank (after)” value [1] was 766 and the “P8_MyD88 Rank (before)” value [2] was 1477.

Work on WALDELLKILDAKETM yielded a Population of 0.0116%.

In the case of WALDELLKILHADETM, the “P8_MyD88 Rank (after)” value [1] is reported as 687 and the “P8_MyD88 Rank (before)” value [2] is reported as 1492.

For WALDELLKILYARELF, the “P8_MyD88 Rank (after)” value [3] was 222 and the “P8_MyD88 Rank (before)” value [4] was 518.

With WALDELLKILYVIATL the “P8_MyD88 Rank (after)” value [5] was 525 and the “P8_MyD88 Rank (before)” value [6] was 1480.

In the case of WALDELLQILHACEPF, the “P8_MyD88 Rank (after)” value [5] is reported as 524 and the “P8_MyD88 Rank (before)” value [6] is reported as 1441.

With WALDELLQILHAKETM the “P8_MyD88 Rank (after)” value [7] was 598 and the “P8_MyD88 Rank (before)” value [8] was 1458.

For WALDELLQILHAREL, the “P8_MyD88 Rank (after)” value [5] was 577 and the “P8_MyD88 Rank (before)” value [6] was 1451.

For WALDELLQILHARELLQIA, the “P8_MyD88 Rank (after)” value [7] was 632 and the “P8_MyD88 Rank (before)” value [8] was 1453.

For WALDELLQILHARRTE, the “P8_MyD88 Rank (after)” value [1] was 702 and the “P8_MyD88 Rank (before)” value [2] was 1457.

In the case of WALDELLQILHPRELV, the “Rank (after)” value [9] is reported as 981 and the “Rank (before)” value [10] is reported as 1460.

In the case of WALDELLQILHVSEMF, the “P8_MyD88 Rank (after)” value [1] is reported as 747 and the “P8_MyD88 Rank (before)” value [2] is reported as 1418.

In the case of WALDELLQILNAREMF, the “Rank (after)” value [11] is reported as 415 and the “Rank (before)” value [12] is reported as 1464.

With WALDELLQILQARELS the “P8_MyD88 Rank (after)” value [1] was 721 and the “P8_MyD88 Rank (before)” value [2] was 1462.

For WALDELLQILRARDLF, the “P8_MyD88 Rank (after)” value [1] was 727 and the “P8_MyD88 Rank (before)” value [2] was 1465.

WALDELLQILYARERF was tested, and the “Rank (after)” value [11] was 448 and the “Rank (before)” value [12] was 1466.

In the case of WALDELLQLQHARELF, the “P8_MyD88 Rank (after)” value [5] is reported as 561 and the “P8_MyD88 Rank (before)” value [6] is reported as 1431.

Work on WALDELLRILY yielded a Population of 0.01%.

WALDELLTILYAKETM was tested, and the “P8_MyD88 Rank (after)” value [7] was 608 and the “P8_MyD88 Rank (before)” value [8] was 1468.

For WALDELRKNLYAIETM, the “P8_MyD88 Rank (after)” value [1] was 701 and the “P8_MyD88 Rank (before)” value [2] was 1502.

With WALDELWHILRALGLF the “P8_MyD88 Rank (after)” value [7] was 631 and the “P8_MyD88 Rank (before)” value [8] was 1426.

In the case of WALDERLIIQYANETM, the “P8_MyD88 Rank (after)” value [1] is reported as 679 and the “P8_MyD88 Rank (before)” value [2] is reported as 1510.

With WALDEVLKIQDDNETM the “P8_MyD88 Rank (after)” value [5] was 544 and the “P8_MyD88 Rank (before)” value [6] was 1423.

In the case of WALDEVLQILRARELF, the “Rank (after)” value [11] is reported as 419 and the “Rank (before)” value [12] is reported as 1421.

For WALDGLLKILHARELF, the “Rank (after)” value [11] was 409 and the “Rank (before)” value [12] was 1413.

In the case of WALDLDWFYERLVSLF, the “P8_MyD88 Rank (after)” value [3] is reported as 225 and the “P8_MyD88 Rank (before)” value [4] is reported as 426.

WALDLEWFYERLFSQM was tested, and the “P8_MyD88 Rank (after)” value [7] was 587 and the “P8_MyD88 Rank (before)” value [8] was 1517.

With WALDLQWFYERLVSLI the “Rank (after)” value [11] was 480 and the “Rank (before)” value [12] was 1518.

For WALDVLLQFLHARELF, the “P8_MyD88 Rank (after)” value [1] was 723 and the “P8_MyD88 Rank (before)” value [2] was 1412.

With WALEELRLIMELHSV the “P8_MyD88 Rank (after)” value [5] was 504 and the “P8_MyD88 Rank (before)” value [6] was 1525.

With WALGELLQILQARERC the “Rank (after)” value [9] was 943 and the “Rank (before)” value [10] was 1408.

WALIELRTIMELWSGN was tested, and the “P8_MyD88 Rank (after)” value [3] was 220 and the “P8_MyD88 Rank (before)” value [4] was 377.

With WALNELLEILKAREDI the “Rank (after)” value [11] was 115, the “Rank (before)” value [12] was 123 and the Population was 0.0173%.

For WALNELLEILYANETM, the “P8_MyD88 Rank (after)” value [7] was 663 and the “P8_MyD88 Rank (before)” value [8] was 1535.

For WALNELLEIMQAKRDL, the “P8_MyD88 Rank (after)” value [3] was 258 and the “P8_MyD88 Rank (before)” value [4] was 429.

For WALNELLKILHARELF, the “Rank (after)” value [11] was 414 and the “Rank (before)” value [12] was 1546.

WALNELLKILQAKIFL was tested, and the “Rank (after)” value [9] was 905 and the “Rank (before)” value [10] was 1547.

Work on WALNELLKILYANETM yielded a Population of 0.0108%.

With WALNELLQILHARELF the Population was 0.00617%.

For WALNELQKILNAKETI, the “Rank (after)” value [9] was 900 and the “Rank (before)” value [10] was 1553.

With WALNELQQILHARELF the “Rank (after)” value [11] was 445 and the “Rank (before)” value [12] was 1549.

For WALNELVEIYQAYKEL, the “P8_MyD88 Rank (after)” value [3] was 273 and the “P8_MyD88 Rank (before)” value [4] was 521.

With WALQELLEILKANREL the “Rank (after)” value [11] was 149, the “Rank (before)” value [12] was 168 and the Population was 0.00848%.

WALQELVKILQAKIFL was tested, and the “Rank (after)” value [11] was 109, the “Rank (before)” value [12] was 115 and the Population was 0.02%.

WALRELEAILQSFQLS was tested, and the “Rank (after)” value [11] was 142, the “Rank (before)” value [12] was 154 and the Population was 0.01%.

WALSELVEILRARENM was tested, and the “P8_MyD88 Rank (after)” value [3] was 195 and the “P8_MyD88 Rank (before)” value [4] was 254.

WALVELLHIRHARELF was tested, and the “P8_MyD88 Rank (after)” value [1] was 709 and the “P8_MyD88 Rank (before)” value [2] was 1405.

For WALVKLLKILYANDTM, the “Rank (after)” value [9] was 949 and the “Rank (before)” value [10] was 1406.

WALVVLLQILHARELF was tested, and the “P8_MyD88 Rank (after)” value [5] was 490 and the “P8_MyD88 Rank (before)” value [6] was 1403.

In the case of WALYELLHILHARELF, the “P8_MyD88 Rank (after)” value [5] is reported as 532 and the “P8_MyD88 Rank (before)” value [6] is reported as 1401.

WAQDALLKILYAKETM was tested, and the “P8_MyD88 Rank (after)” value [7] was 614 and the “P8_MyD88 Rank (before)” value [8] was 1562.

For WAQEQDGFWVRLIEAL, the “Rank (after)” value [11] was 449 and the “Rank (before)” value [12] was 878.

With WDCASNMEQFWDLPYY the “Rank (after)” value [9] was 920 and the “Rank (before)” value [10] was 1639.

WDFAGNWEQFWDRLSY was tested, and the “P8_MyD88 Rank (after)” value [1] was 772 and the “P8_MyD88 Rank (before)” value [2] was 1576.

With WDFASDMEQVWDRLYY the “Rank (after)” value [11] was 444 and the “Rank (before)” value [12] was 1582.

For WDFASKMEQFLDRLYY, the “Rank (after)” value [9] was 893 and the “Rank (before)” value [10] was 1632.

WDFASNMAQFWDRRYY was tested, and the “P8_MyD88 Rank (after)” value [3] was 283 and the “P8_MyD88 Rank (before)” value [4] was 1593.

WDFASNMAQSWDRLYY was tested, and the “P8_MyD88 Rank (after)” value [3] was 246 and the “P8_MyD88 Rank (before)” value [4] was 1595.

In the case of WDFASNMAQVWERLYY, the “Rank (after)” value [9] is reported as 890 and the “Rank (before)” value [10] is reported as 1596.

With WDFASNMEQFWDRLIRMIE the “P8_MyD88 Rank (after)” value [5] was 529 and the “P8_MyD88 Rank (before)” value [6] was 1611.

In the case of WDFASNMEQFWDRLLYA, the “P8_MyD88 Rank (after)” value [1] is reported as 711 and the “P8_MyD88 Rank (before)” value [2] is reported as 1610.

WDFASNMEQFWIVCI was tested, and the “P8_MyD88 Rank (after)” value [1] was 706 and the “P8_MyD88 Rank (before)” value [2] was 1619.

WDFASNMEQLLDRLYY was tested, and the “Rank (after)” value [11] was 406 and the “Rank (before)” value [12] was 1626.

In the case of WDFASNMEQLWERLYY, the “Rank (after)” value [9] is reported as 1014 and the “Rank (before)” value [10] is reported as 1625.

WDFASNMNSFGIVCI was tested, and the “Rank (after)” value [9] was 974 and the “Rank (before)” value [10] was 1628.

In the case of WDFASSSWALDELLRILY, the “P8_MyD88 Rank (after)” value [5] is reported as 550 and the “P8_MyD88 Rank (before)” value [6] is reported as 1585.

WDFASSTWWLRELLQIA was tested, and the “P8_MyD88 Rank (after)” value [3] was 272 and the “P8_MyD88 Rank (before)” value [4] was 524.

WDFASTMEQLWARLYY was tested, and the “P8_MyD88 Rank (after)” value [5] was 498 and the “P8_MyD88 Rank (before)” value [6] was 1587.

For WDFCEQYGTVLGSSVL, the “P8_MyD88 Rank (after)” value [5] was 555 and the “P8_MyD88 Rank (before)” value [6] was 1569.

For WDFGTAGKNPGSAWHH, the “Rank (after)” value [9] was 910 and the “Rank (before)” value [10] was 1573.

In the case of WDFSGNIEQFWDRLYY, the “P8_MyD88 Rank (after)” value [1] is reported as 758 and the “P8_MyD88 Rank (before)” value [2] is reported as 1570.

In the case of WDFSGNMKQALDRLCY, the “P8_MyD88 Rank (after)” value [7] is reported as 613 and the “P8_MyD88 Rank (before)” value [8] is reported as 1571.

WDYASNMEQFWDPLYY was tested, and the “P8_MyD88 Rank (after)” value [7] was 675 and the “P8_MyD88 Rank (before)” value [8] was 1642.

In the case of WDYASNVELFWGRMNY, the “P8_MyD88 Rank (after)” value [7] is reported as 586 and the “P8_MyD88 Rank (before)” value [8] is reported as 1640.

WEDVRINFLSHFLKEL was tested, and the “P8_MyD88 Rank (after)” value [3] was 253 and the “P8_MyD88 Rank (before)” value [4] was 434.

WFLEPLEKILQAHGTT was tested, and the “P8_MyD88 Rank (after)” value [7] was 600 and the “P8_MyD88 Rank (before)” value [8] was 1360.

For WFLFTVRSAIYAMSPA, the “Rank (after)” value [9] was 921 and the “Rank (before)” value [10] was 1358.

For WFLTAFRMAMDQVADT, the “Rank (after)” value [11] was 95, the “Rank (before)” value [12] was 100 and the Population was 0.025%.

With WFWDKLKYALHRNRI the “Rank (after)” value (P3_MyD88: rank by count after grouping) was 406 and the “Rank (before)” value (P3_MyD88: rank by count before grouping) was 1414.
